Biological target: T1, CCK-1 receptor (Homo sapiens, UniProt P32238)
T1 construct: expressed in transfected cells; host or cells: CHO-K1
T1 sequence (P32238 1-428): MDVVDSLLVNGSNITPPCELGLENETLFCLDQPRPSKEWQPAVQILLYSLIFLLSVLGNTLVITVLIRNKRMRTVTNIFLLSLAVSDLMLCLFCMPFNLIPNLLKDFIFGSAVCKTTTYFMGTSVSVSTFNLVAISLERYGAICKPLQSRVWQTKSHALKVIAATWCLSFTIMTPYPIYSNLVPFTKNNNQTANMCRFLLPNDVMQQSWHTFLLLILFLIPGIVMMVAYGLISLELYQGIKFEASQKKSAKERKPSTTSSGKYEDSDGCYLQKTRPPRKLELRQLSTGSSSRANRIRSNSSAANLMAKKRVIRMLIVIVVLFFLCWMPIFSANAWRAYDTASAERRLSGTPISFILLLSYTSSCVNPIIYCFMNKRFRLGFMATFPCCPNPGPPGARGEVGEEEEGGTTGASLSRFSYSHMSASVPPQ
Test: CCK1 binding assay ([125I]-BH-CCK-8S displacement, CHO-K1 membranes)
Conditions: membranes of CHO-K1 cells stably transfected with the CCK-1 receptor; 20 pM [125I]-BH-CCK-8S; 0.3 μM PD-134,308 present; 60 min at 21±3° C.
Procedure, shortened: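 Membranes from CHO-K1 cells stably expressing CCK-1 incubated 1 h at 21±3° C with 20 pM [125I]-BH-CCK-8S in HEPES buffer pH 7.2 containing 0.3 μM PD-134,308 to block CCK-2. Bound radioactivity read by gamma counting after filtration. pKi derived via Cheng-Prusoff, with specific binding defined using 2-NAP.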

- CCK1 pKi: 6.7
SMILES: O=C(N[C@@H](Cc1ccc(Cl)c(Cl)c1)C(=O)O)c1ccc(I)cc1NS(=O)(=O)c1cccc2nsnc12 [Example 2, (S)-2-[2-(Benzo[1,2,5]thiadiazole-4-sulfonylamino)-4-iodo-benzoylamino]-3-(3,4-dichloro-phenyl)-propionic acid]
